Results: patent publication US20230017045A1, “PYRIDINE AND PYRIMIDINE CARBOXYLATE HERBICIDES AND METHODS OF USE THEREOF” (Dow AgroSciences LLC, priority 2017, published 2023)
Like-named read-outs stand apart in the source and are kept apart here.

Tested on: test plant species
Test: Post-emergent herbicidal activity test (greenhouse, foliar spray, visual growth reduction)
Assay type: in vivo
Details: post-emergence, 336 h, 140 g ai/ha
Procedure: Post-emergent Test: Seeds or nutlets of the desired test plant species were planted in Sun Gro Metro-Mix® 360 planting mixture, which typically has a pH of 6.0 to 6.8 and an organic matter content of about 30 percent, in plastic pots with a surface area of 64 square centimeters. In some aspects, to ensure good germination and healthy plants, a fungicide treatment and/or other chemical or physical treatment was applied. The plants were grown for 7-21 d in a greenhouse with an approximate 15 h photoperiod which was maintained at 23-29° C. during the day and 22-28° C. during the night. Nutrients and water were added on a regular basis and supplemental lighting was provided with overhead metal halide 1000-Watt lamps as necessary. Plants were used for testing when they reached the first or second true leaf stage. A weighed amount, determined by the highest rate to be tested, of each test compound was placed in a 25 mL glass vial and was dissolved in 4 mL of a 97:3 v/v mixture of acetone and DMSO to obtain concentrated stock solutions. […] The concentrated stock solutions obtained were diluted with 20 mL of an aqueous mixture containing acetone, water, isopropyl alcohol, DMSO, […] crop oil concentrate, and X-77 surfactant in a 48.5:39:10:1.5:1.0:0.02 v/v ratio to obtain spray solutions containing the application rate. Compound requirements are based upon a 12 mL application volume at a rate of 187 liters per hectare (L/ha). Formulated compounds were applied to the plant material with an overhead Mandel track sprayer equipped with […] nozzles calibrated to deliver 187 L/ha over an application area of 0.64 square meters at a spray height of 18 inches (43 cm) above the average plant canopy height. Control plants were sprayed in the same manner with the solvent blank. The treated plants and control plants were placed in a greenhouse as described above and watered by subirrigation to prevent wash-off of the test compounds. After 14 d, the condition of the test plants as compared with that of the nontreated and control plants was determined visually and scored on a scale of 0 to 100 percent where 0 corresponds to no injury and 100 corresponds to complete control. In the reporting of the results, Table A: Percent Growth Reduction Conversion Table was used.

[1] = ALOMY: blackgrass (Alopecurus myosuroides), 14 days after application, read-out: Visual Growth Reduction (%) 14 Days After Application, ALOMY
[2] = AMARE: redroot pigweed (Amaranthus retroflexus), 14 days after application, read-out: Visual Growth Reduction (%) 14 Days After Application, AMARE
[3] = AVEFA: wild oat (Avena fatua), 14 days after application, read-out: Visual Growth Reduction (%) 14 Days After Application, AVEFA
[4] = CHEAL: lambsquarters (Chenopodium album), 14 days after application, read-out: Visual Growth Reduction (%) 14 Days After Application, CHEAL
[5] = CIRAR: canada thistle (Cirsium arvense), 14 days after application, read-out: Visual Growth Reduction (%) 14 Days After Application, CIRAR
[6] = DIGSA: crabgrass (Digitaria sanguinalis), 14 days after application, read-out: Visual Growth Reduction (%) 14 Days After Application, DIGSA
[7] = ECHCG: barnyardgrass (Echinochloa crus-galli), 14 days after application, read-out: Visual Growth Reduction (%) 14 Days After Application, ECHCG
[8] = ORYSA: rice (Oryza sativa), 14 days after application, read-out: Visual Growth Reduction (%) 14 Days After Application, ORYSA
[9] = SETFA: giant foxtail (Setaria faberi), 14 days after application, read-out: Visual Growth Reduction (%) 14 Days After Application, SETFA
[10] = SORVU: grain sorghum (Sorghum vulgare), 14 days after application, read-out: Visual Growth Reduction (%) 14 Days After Application, SORVU
[11] = STEME: common chickweed (Stellaria media), 14 days after application, read-out: Visual Growth Reduction (%) 14 Days After Application, STEME
[12] = TRZAS: wheat, spring (Triticum aestivum), 14 days after application, read-out: Visual Growth Reduction (%) 14 Days After Application, TRZAS
[13] = IPOHE: ivy-leaf morning glory (Ipomoea hederacea), 14 days after application, read-out: Visual Growth Reduction (%) 14 Days After Application, IPOHE
[14] = KCHSC: kochia (Bassia scoparia), 14 days after application, read-out: Visual Growth Reduction (%) 14 Days After Application, KCHSC

Row | SMILES | pest or weed control at 140 g/ha [1] [%] | pest or weed control at 140 g/ha [2] [%] | pest or weed control at 140 g/ha [3] [%] | pest or weed control at 140 g/ha [4] [%] | pest or weed control at 140 g/ha [5] [%] | pest or weed control at 140 g/ha [6] [%] | pest or weed control at 140 g/ha [7] [%] | pest or weed control at 140 g/ha [8] [%] | pest or weed control at 140 g/ha [9] [%] | pest or weed control at 140 g/ha [10] [%] | pest or weed control at 140 g/ha [11] [%] | pest or weed control at 140 g/ha [12] [%] | pest or weed control at 140 g/ha [13] [%] | pest or weed control at 140 g/ha [14] [%] | further results
1 | COC(=O)c1nc(-c2ccc(Cl)cc2)c(N)cc1Cl [F72, methyl 5-amino-3-chloro-6-(4-chlorophenyl)picolinate] | 0 to 29 | 0 to 29 | 0 to 29 | 0 to 29 | 0 to 29 | 0 to 29 | 0 to 29 | 0 to 29 | 0 to 29 | 0 to 29 | 0 to 29 | 0 to 29 |  |  | pest or weed control at 140 g/ha (CYPES: yellow nutsedge (Cyperus esculentus), 14 days after application, read-out: Visual Growth Reduction (%) 14 Days After Application, CYPES): 0 to 29%
2 | COC(=O)c1nc(-c2ccc(C)cc2)c(F)cc1Cl [F249, Methyl 3-chloro-5-fluoro-6-(p-tolyl)picolinate] |  |  |  |  |  |  | 0 to 29 | 0 to 29 | 0 to 29 | 0 to 29 | 0 to 29 | 0 to 29 | 0 to 29 | 0 to 29 | pest or weed control at 140 g/ha (blackgrass (Alopecurus myosuroides), 14 Days After Application, read-out: Visual Growth Reduction (%) ALOMY): 0 to 29%; pest or weed control at 140 g/ha (canada thistle (Cirsium arvense), 14 Days After Application, read-out: Visual Growth Reduction (%) CIRAR): 0 to 29%; pest or weed control at 140 g/ha (crabgrass (Digitaria sanguinalis), 14 Days After Application, read-out: Visual Growth Reduction (%) DIGSA): 0 to 29%; pest or weed control at 140 g/ha (lambsquarters (Chenopodium album), 14 Days After Application, read-out: Visual Growth Reduction (%) CHEAL): 60 to 74%; pest or weed control at 140 g/ha (redroot pigweed (Amaranthus retroflexus), 14 Days After Application, read-out: Visual Growth Reduction (%) AMARE): 0 to 29%; pest or weed control at 140 g/ha (wild oat (Avena fatua), 14 Days After Application, read-out: Visual Growth Reduction (%) AVEFA): 0 to 29%; pest or weed control at 140 g/ha (yellow nutsedge (Cyperus esculentus), 14 Days After Application, read-out: Visual Growth Reduction (%) CYPES): 0 to 29%
3 | O=C(O)c1nc(-c2cc3c(cc2Cl)OCO3)ccc1Cl [F148, 3-Chloro-6-(6-chlorobenzo[d][1,3]dioxol-5-yl)picolinic acid] | 0 to 29 | 75 to 84 | 0 to 29 | 75 to 84 | 0 to 29 | 0 to 29 | 0 to 29 | 0 to 29 | 0 to 29 | 0 to 29 | 0 to 29 | 0 to 29 | 30 to 44 | 0 to 29 | 
